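These data come from cells grown in 96-well plates and exposed to compound for 48 hours at five concentrations. Here, GI50 denotes the concentration required for 50% inhibition of growth.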 Activity calls are given as the source filed them. No stated cut-off is given here; in the data, active = GI50 up to about 1.1 µM and inactive = higher.
Assays:
Test in all cases: inhibition of tumour cell growth, NCI panel, 48 h
[1] = system: NCI-H522
[2] = system: COLO 205
[3] = system: NCI-H460
[4] = system: PC-3
[5] = system: SK-MEL-5
[6] = system: T47D
[7] = system: UACC-62
[8] = system: Malme-3M
[9] = system: Hs-578T
[10] = system: HT-29
[11] = system: A549
[12] = system: SNB-19
[13] = system: HCT-116
[14] = system: SK-MEL-2
[15] = system: OVCAR-8
[16] = system: SN12C
[17] = system: EKVX
[18] = system: OVCAR-5
[19] = system: MDA-MB-231
[20] = system: CCRF-CEM

SMILES | GI50 [1] | GI50 [2] | GI50 [3] | GI50 [4] | GI50 [5] | GI50 [6] | GI50 [7] | GI50 [8] | GI50 [9] | GI50 [10] | GI50 [11] | GI50 [12] | GI50 [13] | GI50 [14] | GI50 [15] | GI50 [16] | GI50 [17] | GI50 [18] | GI50 [19] | GI50 [20]
C[N+]1(C)CCc2cc(O)c(O)cc2C1Cc1ccc(O)c(O)c1 (centres undefined) | 22.5 µM (inactive) | > 100 µM (inactive) | 63.7 µM (inactive) | > 100 µM (inactive) | 48.2 µM (inactive) | 23 µM (inactive) | 29.9 µM (inactive) | 32.1 µM (inactive) | 86.9 µM (inactive) | 34.8 µM (inactive) | > 100 µM (inactive) | > 100 µM (inactive) | 22.4 µM (inactive) | 1.11 µM (active) | 35.2 µM (inactive) | 38.2 µM (inactive) | > 100 µM (inactive) | > 100 µM (inactive) | 31.1 µM (inactive) | 
O=C(CCc1cc(O)cc(O)c1)NCCc1cc(OCc2ccccc2)cc(OCc2ccccc2)c1 | 11.9 µM (inactive) | 20.5 µM (inactive) | 4.68 µM (inactive) | 8.89 µM (inactive) | 10.6 µM (inactive) | 11.2 µM (inactive) | 16.9 µM (inactive) |  | 16.8 µM (inactive) | 14.8 µM (inactive) | 5.28 µM (inactive) | 2.41 µM (inactive) | 12.9 µM (inactive) | 10.2 µM (inactive) | 13.7 µM (inactive) | 14.9 µM (inactive) | 7.24 µM (inactive) | 20.2 µM (inactive) | 10.3 µM (inactive) | 7.8 µM (inactive)
Cn1c(=O)c2[nH]c(N=O)nc2n(C)c1=O | > 100 µM (inactive) | > 100 µM (inactive) | > 100 µM (inactive) | > 100 µM (inactive) |  | > 100 µM (inactive) | > 100 µM (inactive) | > 100 µM (inactive) | > 100 µM (inactive) | > 100 µM (inactive) | > 100 µM (inactive) |  | > 100 µM (inactive) | > 100 µM (inactive) | > 100 µM (inactive) | > 100 µM (inactive) | > 100 µM (inactive) | > 100 µM (inactive) | > 100 µM (inactive) | 
COc1cc(-c2ccccc2)cn2c1nc1ccccc12 | 16.5 µM (inactive) | 19.2 µM (inactive) | 21.2 µM (inactive) | 18.8 µM (inactive) | 18.5 µM (inactive) | 20.7 µM (inactive) | 18.7 µM (inactive) | 20.2 µM (inactive) | 27.6 µM (inactive) | 17.3 µM (inactive) | 20 µM (inactive) | 23.1 µM (inactive) | 20.9 µM (inactive) | 22.1 µM (inactive) | 24.8 µM (inactive) | 19.8 µM (inactive) |  | 15 µM (inactive) | 21.8 µM (inactive) | 25.5 µM (inactive)
CN(C)c1c(Cl)c(=O)oc2c1ccc1nc(-c3ccccc3)sc12 | > 100 µM (inactive) | > 100 µM (inactive) | > 100 µM (inactive) | > 100 µM (inactive) | > 100 µM (inactive) | > 100 µM (inactive) | 64.6 µM (inactive) | 31.5 µM (inactive) | > 100 µM (inactive) | > 100 µM (inactive) | > 100 µM (inactive) | > 100 µM (inactive) | > 100 µM (inactive) |  | > 100 µM (inactive) | > 100 µM (inactive) | > 100 µM (inactive) | > 100 µM (inactive) | > 100 µM (inactive) | > 100 µM (inactive)
OCC(O)C(O)C(C=NNc1ncnc2ccc(Br)cc12)=NNc1ncnc2ccc(Br)cc12 (centres undefined) | 0.404 µM (active) | 0.366 µM (active) |  | 4.73 µM (inactive) | 1.22 µM (inactive) | 0.413 µM (active) |  | 1.84 µM (inactive) | 41.9 µM (inactive) | 0.662 µM (active) | 6.3 µM (inactive) | 6.04 µM (inactive) | 0.404 µM (active) | 2.26 µM (inactive) | 1.72 µM (inactive) | 6.84 µM (inactive) | 0.581 µM (active) | 5.13 µM (inactive) | 1.26 µM (inactive) | 
COc1ccc(/C=C(/C#N)C(N)=O)c(OC)c1 | > 100 µM (inactive) | > 100 µM (inactive) | > 100 µM (inactive) | 97.3 µM (inactive) | 50.9 µM (inactive) | > 100 µM (inactive) | 42.6 µM (inactive) |  | > 100 µM (inactive) | > 100 µM (inactive) | > 100 µM (inactive) | > 100 µM (inactive) | 64 µM (inactive) | 50.4 µM (inactive) | > 100 µM (inactive) | > 100 µM (inactive) | > 100 µM (inactive) | > 100 µM (inactive) | > 100 µM (inactive) | 26.8 µM (inactive)
